# Results from ChEMBL document CHEMBL1151568, “New TXA2/PGH2 receptor antagonists based on the carbacyclin skeleton” (Bioorg Med Chem Lett, 1993).
# How the values were obtained:
# [1] = target: T1, Thromboxane A2 receptor (Homo sapiens) (UniProt P21731); experiment: TP receptor affinity, expressed as competition factor (CF) which is the ratio of IC50 of test to IC50 of standard
# T1 sequence (whole entry): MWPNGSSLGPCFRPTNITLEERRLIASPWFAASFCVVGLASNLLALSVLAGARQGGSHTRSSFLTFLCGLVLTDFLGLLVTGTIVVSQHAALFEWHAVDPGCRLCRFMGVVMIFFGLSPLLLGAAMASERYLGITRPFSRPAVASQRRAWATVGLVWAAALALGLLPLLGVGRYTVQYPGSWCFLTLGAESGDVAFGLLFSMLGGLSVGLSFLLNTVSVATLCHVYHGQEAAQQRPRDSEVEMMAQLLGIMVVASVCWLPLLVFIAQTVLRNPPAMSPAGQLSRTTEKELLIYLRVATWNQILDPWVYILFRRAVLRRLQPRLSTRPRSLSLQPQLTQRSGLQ
# [2] = target: T1, Thromboxane A2 receptor (Homo sapiens); experiment: Antiaggregatory potency relative to TP-receptor antagonist SQ 29548; format: functional
# Prostacyclin receptor [3] = target: T2, Prostacyclin receptor (Homo sapiens, UniProt P43119); experiment: (§1) Compound was tested for Prostanoid IP receptor affinity and expressed as competition factor (CF) which is the ratio of IC50 of test to IC50 of standard
# T2 sequence (P43119 whole entry): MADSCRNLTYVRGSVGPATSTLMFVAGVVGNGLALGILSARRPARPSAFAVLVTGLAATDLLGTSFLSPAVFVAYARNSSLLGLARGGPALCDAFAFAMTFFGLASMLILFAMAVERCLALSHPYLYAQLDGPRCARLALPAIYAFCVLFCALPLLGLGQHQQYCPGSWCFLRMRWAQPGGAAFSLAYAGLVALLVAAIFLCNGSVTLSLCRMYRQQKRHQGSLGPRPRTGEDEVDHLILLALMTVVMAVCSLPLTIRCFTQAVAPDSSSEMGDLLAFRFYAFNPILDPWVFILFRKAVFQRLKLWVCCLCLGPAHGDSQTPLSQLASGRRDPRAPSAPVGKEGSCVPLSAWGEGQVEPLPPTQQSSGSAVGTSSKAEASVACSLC
# Homo sapiens [4] = species on record: Homo sapiens; experiment: Compound was tested for its ability to inhibit blood platelet aggregation induced by TP-receptor agonist U 46619; format: functional
# Homo sapiens [5] = species on record: Homo sapiens; experiment: Compound was tested for its ability to inhibit blood platelet aggregation induced by ADP; format: functional
# Prostacyclin receptor [6] = target: T2, Prostacyclin receptor; experiment: as §1; remark: listed apart in the source
SMILES,CF [1],Relative potency [2],CF (Prostacyclin receptor [3]),IC50 (Homo sapiens [4]) [nM],IC50 (Homo sapiens [5]) [nM],IC50 (Prostacyclin receptor [6])
O=C(O)CCC/C=C1\C[C@H]2CC[C@H](/C=N/NC(=O)Nc3ccc([N+](=O)[O-])cc3)[C@H]2C1,2.2,0.01,,,,
O=C(O)CCC/C=C1\C[C@H]2C[C@@H](O)[C@H](/C=N/OCc3ccc4ccccc4c3)[C@H]2C1,280,0.03,31,1600,1100,
O=C(O)CCC/C=C1/C[C@H]2C[C@@H](O)[C@H](/C=N/NC(=O)Nc3cccc(Cl)c3)[C@H]2C1,0.2,0.25,,,,
O=C(O)COC/C=C1/C[C@H]2C[C@@H](O)[C@H](/C=N/NC(=O)Nc3ccc([N+](=O)[O-])cc3)[C@H]2C1,0.9,1,,,,
O=C(O)CC/C=C1/C[C@H]2C[C@@H](O)[C@H](/C=N/NC(=O)Nc3ccc([N+](=O)[O-])cc3)[C@H]2C1,0.5,8.3,,,,
O=C(O)CC/C=C1\C[C@H]2C[C@@H](O)[C@H](/C=N/NC(=O)Nc3ccccc3)[C@H]2C1,454,0.0007,,,,
O=C(O)CCC/C=C1/C[C@H]2C[C@@H](O)[C@H](/C=N/OCc3ccc4ccccc4c3)[C@H]2C1,90,0.002,76,2200,,
O=C(O)CCC/C=C1/C[C@H]2C[C@@H](O)[C@H](/C=N\OC(c3ccccc3)c3ccccc3)[C@H]2C1,210,0.001,,23000,,NC
O=C(O)CCC/C=C1\C[C@H]2C[C@@H](O)[C@H](/C=N/OCc3ccccc3)[C@H]2C1,> 1000,0.009,7,1900,2000,
O=C(O)CCC/C=C1\C[C@H]2C[C@@H](O)[C@H](/C=N\OC(c3ccccc3)c3ccccc3)[C@H]2C1,95,0.03,160,1600,1000,
O=C(O)CCC/C=C1/C[C@H]2C[C@@H](O)[C@H](/C=N/OCc3ccccc3)[C@H]2C1,470,0.001,100,5400,> 50000,
O=C(O)CC/C=C1\C[C@H]2C[C@@H](O)[C@H](/C=N/NC(=O)Nc3ccc([N+](=O)[O-])cc3)[C@H]2C1,22,0.027,,,,
O=C(O)CC/C=C1/C[C@H]2C[C@@H](O)[C@H](/C=N/NC(=O)Nc3cccc(Cl)c3)[C@H]2C1,2.4,0.11,,,,
O=C(O)CCC/C=C1/C[C@H]2CC[C@H](/C=N/NC(=O)Nc3ccccc3)[C@H]2C1,3,0.002,,,,
O=C(O)CCC/C=C1\C[C@H]2C[C@@H](O)[C@H](/C=N/NC(=O)Nc3ccc(Cl)c(Cl)c3)[C@H]2C1,0.8,0.038,,,,
O=C(O)CCC/C=C1/C[C@H]2C[C@@H](O)[C@H](/C=N/OCc3ccc(F)cc3)[C@H]2C1,500,0.001,250,14000,,
O=C(O)CCC/C=C1/C[C@H]2CC[C@H](/C=N/NC(=O)Nc3ccc(Cl)c(Cl)c3)[C@H]2C1,1.6,0.003,,,,
O=C(O)CCC/C=C1\C[C@H]2C[C@@H](O)[C@H](/C=N/OCc3ccc(F)cc3)[C@H]2C1,> 1000,0.009,20,1900,1500,
O=C(O)CCC/C=C1/C[C@H]2C[C@@H](O)[C@H](/C=N/NC(=O)Nc3ccc([N+](=O)[O-])cc3)[C@H]2C1,0.1,0.33,,,,
O=C(O)CCC/C=C1\C[C@H]2CC[C@H](/C=N/NC(=O)Nc3ccc(Cl)c(Cl)c3)[C@H]2C1,4.3,0.002,,,,

SMILES,CF [1],Relative potency [2],CF (Prostacyclin receptor [3]),IC50 (Homo sapiens [4]) [nM],IC50 (Homo sapiens [5]) [nM],IC50 (Prostacyclin receptor [6])
O=C(O)CCC/C=C1\C[C@H]2CC[C@H](/C=N/NC(=O)Nc3cccc(Cl)c3)[C@H]2C1,16,0.0007,,,,
O=C(O)CCC/C=C1\C[C@H]2C[C@@H](O)[C@H](/C=N/NC(=O)Nc3ccccc3)[C@H]2C1,20,0.005,,,,
O=C(O)COC/C=C1\C[C@H]2C[C@@H](O)[C@H](/C=N/NC(=O)Nc3ccccc3)[C@H]2C1,138,0.008,,,,
O=C(O)CCC/C=C1/C[C@H]2C[C@@H](O)[C@H](/C=N/NC(=O)Nc3ccccc3)[C@H]2C1,1.5,0.17,,,,
O=C(O)CC/C=C1\C[C@H]2C[C@@H](O)[C@H](/C=N/NC(=O)Nc3cccc(Cl)c3)[C@H]2C1,50,0.004,,,,
O=C(O)COC/C=C1\C[C@H]2C[C@@H](O)[C@H](/C=N/NC(=O)Nc3cccc(Cl)c3)[C@H]2C1,18,0.03,,,,
O=C(O)COC/C=C1/C[C@H]2C[C@@H](O)[C@H](/C=N/NC(=O)Nc3cccc(Cl)c3)[C@H]2C1,4,0.11,,,,
O=C(O)COC/C=C1/C[C@H]2C[C@@H](O)[C@H](/C=N/NC(=O)Nc3ccccc3)[C@H]2C1,16,0.014,,,,
O=C(O)COC/C=C1\C[C@H]2C[C@@H](O)[C@H](/C=N/NC(=O)Nc3ccc([N+](=O)[O-])cc3)[C@H]2C1,9.4,0.33,,,,
O=C(O)CC/C=C1/C[C@H]2C[C@@H](O)[C@H](/C=N/NC(=O)Nc3ccc(Cl)c(Cl)c3)[C@H]2C1,0.8,0.33,,,,
O=C(O)CCC/C=C1/C[C@H]2C[C@@H](O)[C@H](/C=N/NC(=O)Nc3ccc(Cl)c(Cl)c3)[C@H]2C1,0.1,1,,,,
O=C(O)CCC/C=C1/C[C@H]2CC[C@H](/C=N/NC(=O)Nc3ccc([N+](=O)[O-])cc3)[C@H]2C1,0.7,0.01,,,,
O=C(O)CCC/C=C1\C[C@H]2C[C@@H](O)[C@H](/C=N/NC(=O)Nc3ccc([N+](=O)[O-])cc3)[C@H]2C1,0.7,0.1,,,,
O=C(O)CCC/C=C1\C[C@H]2CC[C@H](/C=N/NC(=O)Nc3ccccc3)[C@H]2C1,40,0.0004,,,,
O=C(O)CC/C=C1\C[C@H]2C[C@@H](O)[C@H](/C=N/NC(=O)Nc3ccc(Cl)c(Cl)c3)[C@H]2C1,16,0.008,,,,
O=C(O)CCC/C=C1\C[C@H]2C[C@@H](O)[C@H](/C=N/NC(=O)Nc3cccc(Cl)c3)[C@H]2C1,1.6,0.09,,,,
O=C(O)COC/C=C1\C[C@H]2C[C@@H](O)[C@H](/C=N/NC(=O)Nc3ccc(Cl)c(Cl)c3)[C@H]2C1,2.9,0.11,,,,
O=C(O)COC/C=C1/C[C@H]2C[C@@H](O)[C@H](/C=N/NC(=O)Nc3ccc(Cl)c(Cl)c3)[C@H]2C1,0.7,0.33,,,,
O=C(O)CC/C=C1/C[C@H]2C[C@@H](O)[C@H](/C=N/NC(=O)Nc3ccccc3)[C@H]2C1,10,0.059,,,,
